One block for each compound: values may come before it.
Key:
[1] = tested on: corneal vascularization elicited by bFGF or VEGF; settings: compared to the R-form or racemic form (NPL 6); cited from earlier work
[2] = Stability of lenalidomide in different solvents (HPLC peak areas of the enantiomers); assay type: physicochemical; settings: 0.5 mg/mL racemic mixture, room temperature or 50° C., 24 hours
Protocol: A racemic mixture of 0.5 mg/mL lenalidomide in methanol, ethanol, isopropanol, acetonitrile or ethyl acetate, as the sample (product of Selleck Chemicals, US) was incubated at room temperature or at 50° C. for 24 hours, and the following HPLC conditions were employed for quantification of the lenalidomide enantiomers, for evaluation of the stability of lenalidomide in the different solvents.
(§1) Apparatus: Nanospace SI-2 Series (Shiseido Corp.)
Mobile phase: EtOH (100%)
Injection volume: 5 μL, Detection: UV 230 nm.
The peak areas for the enantiomers before and after incubation are shown in FIG. 1 (the initially observed peaks are enantiomer 1, and the next observed peaks are enantiomer 2). […] Lenalidomide was also stable even in isopropanol.

[3] = Dependence of racemization of lenalidomide enantiomers on pH in aqueous buffers at room temperature; assay type: physicochemical
[4] = tested on: recurrent intractable multiple myeloma; settings: in combination with dexamethasone; cited from earlier work
[5] = human blood plasma (NPL 10); cited from earlier work
[6] = NPL 5; cited from earlier work
[7] = Racemization half-life in human serum (37° C.); settings: for racemization half-life in serum, times longer than the corresponding TD enantiomer: human serum, 37° C.; for half-life in human serum compared to buffer: pH 7.4
Source text: The analysis method of the invention is shown as FIG. 15(b). The acid used to suspend the reaction while simultaneously precipitating and removing the protein was HClO4.
as §1

[8] = Racemization half-life under biological buffer conditions (Na-phosphorate buffer pH 7.4, 37° C.); settings: average of 3 tests ± SD

Compound: 3-amino-phthalimide-glutarimide [S-pomalidomide]
inhibition of corneal vascularization [1]: significantly inhibit

Compound: Nc1cccc2c1CN(C1CCC(=O)NC1=O)C2=O (racemic) [lenalidomide, Lenalidomide]
stability in solvent (decomposition) ([2]; acetonitrile and ethyl acetate): no decomposition was observed | stability in solvent ([2]; isopropanol): stable | stability in solvent ([2]; methanol and ethanol): highly unstable | stability of the enantiomers ([3]; acidic conditions (<pH 4)): stable | increase of racemization half-life for every pH reduction of 1 ([3]; aqueous buffers pH 4 to 9, room temperature): 10 times | racemization half-life ([3]; pH 4, room temperature): estimation of the half-life was no longer possible | racemization and decomposition (peak areas) in aqueous buffer ([3]; pH 9 and 8, room temperature): racemization and decomposition of LL takes place | success rate [4]: 60%

Compound: O=C1CCC(N2C(=O)c3ccccc3C2=O)C(=O)N1 (racemic) [thalidomide]
racemization half-life in human blood plasma [5]: approximately 10 minutes | sedative action [6]: only been reported with the R-form

Compound: Nc1cccc2c1CN([C@@H]1CCC(=O)NC1=O)C2=O (single isomer, unassigned) [(R*)-LL]
racemization half-life in serum, times longer than the corresponding TD enantiomer [7]: 3 times | racemization half-life in human serum [7]: 1.82 ± 0.0333 h | racemization half-life in aqueous buffer [8]: 4.45 ± 0.0183 h

Compound: Nc1cccc2c1CN([C@H]1CCC(=O)NC1=O)C2=O (single isomer, unassigned) [(S*)-LL]
racemization on incubation in aqueous buffer ([3]; pH 6, room temperature): A small amount of (R*)-LL was produced | racemization on incubation in aqueous buffer ([3]; pH 7 and higher, room temperature): racemization was significantly accelerated | racemization half-life in serum, times longer than the corresponding TD enantiomer [7]: 6 times | racemization half-life in human serum [7]: 2.18 ± 0.0817 h | racemization half-life in aqueous buffer [8]: 4.53 ± 0.0217 h

racemization half-life in human serum [7]: 0.548 ± 0.417 h | half-life in human serum compared to buffer [7]: 11.1% | racemization half-life in aqueous buffer [8]: 4.92 ± 0.4 h
Compound: O=C1CC[C@@H](N2C(=O)c3ccccc3C2=O)C(=O)N1 [(R)-TD, R-thalidomide]

racemization half-life in human serum [7]: 0.363 ± 0.0167 h | half-life in human serum compared to buffer [7]: 8.2% | racemization half-life in aqueous buffer [8]: 4.43 ± 0.167 h
Compound: O=C1CC[C@H](N2C(=O)c3ccccc3C2=O)C(=O)N1 [(S)-TD, S-thalidomide]

From patent US10725057B2, “Method for pretreatment and method for analysis of lenalidomide in biological sample” (Shiseido Company, Ltd, priority 2014, dated 2020)
